Test results reported in US9617285B2, “1-hydroxy-benzooxaboroles as antiparasitic agents” (priority 2013, dated 2017).

What was measured:
Assay type in all cases: in vivo
[1] = Tolerability of treatment in hookworm-infected dogs; details: oral, point dose of no greater than 25 mg/kg bodyweight
Experimental: (§1) The antihelminthic activity of the Example 1 compound, when administered orally at a point dose of no greater than 25 mg/kg bodyweight, is evaluated against experimental infections of the hookworms Ancylostoma caninum and Uncinaria stenocephala in dogs. Four (4) beagle dogs in good health are inoculated with 3rd-stage infective larvae of each hookworm species, per W.A.A.V.P. Guidelines (Jacobs, D. E., A. Arakawa, C. H. Courtney, et al., 1994. Vet. Parasitol. 52: 179-202) so as to provide sufficient time for development of full patency. Fecal egg counts are conducted twice before treatment (Day-2 and Day-1). On Day 0, test article (technical active dissolved in 55-65% polyethylene glycol-300, 25-35% propylene glycol and 10-20% water) is administered to all four dogs via esophageal feeding tube. Fecal egg counts are conducted post-treatment on Days 3, 5 and 7. The average of two pre-treatment fecal egg counts is used for comparison to post-treatment egg counts for the purposes of calculating efficacy (geometric mean % reduction in fecal egg count) against each hookworm species.

Ancylostoma caninum = assay: Experimental hookworm infections in dogs, A. caninum; details: oral, point dose of no greater than 25 mg/kg bodyweight, by Day 3
Experimental: (§2) Activity of Example 1 Compound Against Experimental Hookworm Infections in Dogs
as §1

Uncinaria stenocephala = assay: Experimental hookworm infections in dogs, U. stenocephala; details: oral, point dose of no greater than 25 mg/kg bodyweight, by Day 5
Experimental: as §2, §1

Question: For `C[C@](C#N)(COc1ccc2c(c1Cl)B(O)OC2)NC(=O)c1ccc(OC(F)(F)F)cc1` (single isomer, unassigned) [Example 1], which tolerability of treatment [1] is on record?
Answer: The tolerability of treatment was “well tolerated”.

Question: And the “reduction in A. caninum fecal egg counts” value (Ancylostoma caninum)?
Answer: Its value is greater than 50%.

Question: What about the “reduction in U. stenocephala fecal egg count” value (Uncinaria stenocephala) of the same compound?
Answer: Its value is greater than 50%.
